A word on the IC50: it is the concentration that inhibits the measured activity by half. As a reminder, the inhibition is the change of the read-out against control, counted positive when it falls. What is called Ki is the dissociation constant of the complex between target and ligand, obtained from inhibition or displacement. A low value points to tighter binding.

The source of these data is ChEMBL document CHEMBL4765272, “Design, synthesis and biological evaluation of tyrosine derivatives as Mcl-1 inhibitors” (Eur J Med Chem, 2020).

One test has as its system Jurkat. Put plainly: Antiproliferative activity against human Jurkat cells incubated for 72 hrs by MTT assay. The test is classed as functional, cell-based.
The nature of test [1]: Antiproliferative activity against human KM3 cells incubated for 72 hrs by MTT assay. To be noted: KM3, 72 h. In kind it is functional, cell-based. On the technique in general: Tetrazolium dyes change colour on reduction, which living cells bring about.
The subject of a further test is HepG2. As to the kind of experiment: Antiproliferative activity against human HepG2 cells incubated for 72 hrs by MTT assay. To be noted: HepG2, 72 h. The test is classed as functional, cell-based.
Another test has as its system MOLT-4. Put plainly: Antiproliferative activity against human MOLT-4 cells incubated for 72 hrs by MTT assay. In kind it is functional, cell-based. To be noted: MOLT-4, 72 h.
The next test concerns PC-3. As to the kind of experiment: Antiproliferative activity against human PC-3 cells incubated for 72 hrs by MTT assay. The test is classed as functional, cell-based. To be noted: PC-3, 72 h.
Another test has as its system RPMI-8226. As to the kind of experiment: Antiproliferative activity against human RPMI-8226 cells incubated for 72 hrs by MTT assay. To be noted: RPMI-8226, 72 h. The test is classed as functional, cell-based.
The species named for another test is Homo sapiens. As to the kind of experiment: Inhibition of 5-FAM-BH3 peptide binding to human N-terminal GST-tagged BCL-2 (1 to 34 residues)/BCL-XL (29 to 44 residues)/BCL-2 isoform 2 (92 to 207 residues) expressed in Escherichia coli BL21 (DE3) at 100 uM by fluorescence polarization assay relative to control. For orientation: In fluorescence polarisation assays a small probe gives low polarisation when free and higher when bound to something large.

The target in test [2] is Bcl-2-like protein 1 (Homo sapiens) (UniProt Q07817). Put plainly: Inhibition of 5-FAM-BH3 peptide binding to human N-terminal GST-tagged BCL-XL (1 to 212 residues) expressed in Escherichia coli BL21 (DE3) at 100 uM by fluorescence polarization assay relative to control.
Chain of Bcl-2-like protein 1 (Homo sapiens) (Q07817 whole entry, the tested form may be a part): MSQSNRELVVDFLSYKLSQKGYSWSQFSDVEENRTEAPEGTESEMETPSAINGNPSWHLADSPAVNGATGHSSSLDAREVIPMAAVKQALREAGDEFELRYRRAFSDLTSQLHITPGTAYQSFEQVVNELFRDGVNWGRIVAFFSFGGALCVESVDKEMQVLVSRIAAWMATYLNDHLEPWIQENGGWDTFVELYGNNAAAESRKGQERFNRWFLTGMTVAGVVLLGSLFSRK
The subject of the next test is NCI-H1299. Put plainly: Antiproliferative activity against human NCI-H1299 cells incubated for 72 hrs by MTT assay. In kind it is functional, cell-based. To be noted: NCI-H1299, 72 h.
A short description of test [3]: Inhibition of 5-FAM-BH3 peptide binding to N-terminal His8-tagged human MCL-1 (209 to 327 residues)/mouse MCL-1 (152 to 189 residues) expressed in Escherichia coli BL21 (DE3) by fluorescence polarization assay.

A value given as a limit tells only on which side of the number the result lay.

For `Cc1ccc(CC(=O)N[C@@H](Cc2cc(I)c(OCCOc3cccc4ccccc34)c(I)c2)C(=O)NS(=O)(=O)c2ccc(NCCCc3ccccc3)c([N+](=O)[O-])c2)cc1`, the concentration for half-maximal inhibition (IC50) in the test on Jurkat was determined as 17.2 µM; in test [1], 8.26 µM; with HepG2, 12.7 µM; in the test on MOLT-4, 18 µM; in the test with PC-3, 18.2 µM; with RPMI-8226, 7.35 µM. Also, half-maximal inhibition in the test on NCI-H1299 (IC50) was put at 21.5 µM. In addition, the inhibition (in the test filed under Homo sapiens; in test [2]) was over 50% throughout. The molecule further yielded a Ki in [3] of 210 nM.
